Where a name gives a salt, the structure may show the parent alone.

Data on 4 molecules can be found in patent publication US20080182877A1, “Rimonabant forms and methods of making the same” (priority 2007, published 2008).

What all share (assay type): physicochemical
One series in a line: Solubility in water. Conditions: compared with the known Form I. From the text: In general, only the hydrated Form III rimonabant is obtainable by a process employing water as the solvent. The other known solvent-free forms I and II are made by a process employing solely an organic solvent. The Form III is thus an advantageous form from technological and ecological reasons.

Series [1] is described as follows: Storage stability of solid forms at room temperature. As for the experimental part:
In detail, rimonabant base may be isolated in a new solid state crystalline hydrate form, designated as the Form III. Form III is characterized by the XRPD spectrum having characteristic peaks at angles of around 9.29°, 10.49°, 13.52°, 15.25°, 17.78° using a 2-theta scale. […] The hydrated Form III is stable during storage at room temperature.
In general, a mixture of the hydrated Form III and the methanol solvate Form IV may be obtained after a crystallization of rimonabant base from a methanol solvent containing water. Mixtures of the hydrated Form III and the methanol solvate Form IV may also be obtained by crystallizing rimonabant base and rimonabant hydrochloride from methanol/water mixtures. A longer crystallization time, a slower cooling, and a lower solute concentration each generally promote the crystallization of Form III over Form IV. […] The methanolate Form IV is thus a thermodynamically unstable form. A mixture of Forms III and Form IV is also useful for making particulated amorphous rimonabant base.
Rimonabant base may also be isolated in a propanol solvate form, designated as the Form VI. Form VI is characterized by the following XRPD having characteristic peaks at angles of around 6.73°, 8.36°, 9.92°, 11.98°, 13.45°, 14.34°, 18.14°, 21.43°, 21.88°, 24.13°, 31.03° and 32.28° using a 2-theta scale. […] Instead, the known Form I of the crystalline anhydrous rimonabant is provided after a crystallization from 2-propanol. Form VI may be obtained by crystallizing rimonabant base from a 1-propanol solvent. For example, the crystallization may be induced by a slow evaporation of the 1-propanol solvent.

A short description of series [2]: Thermal desolvation of hydrates/solvates by heating/drying. As to conditions: among Form III, IV, V and VI; temperature higher than 80° C. preferable. An excerpt: The conversion of any of the above hydrates and/or solvates, as well as mixtures thereof, to the particulated amorphous rimonabant base may be performed by a heating (drying) thereof at an enhanced temperature (e.g., higher than room temperature), preferably at diminished pressure (e.g., lower than atmospheric pressure). The transformation into the particulated amorphous rimonabant base may be accomplished by the fact that the crystalline lattice of any of the solvates and/or hydrates is thermally unstable and may collapse at an enhanced temperature without any further recrystallization into the most thermodynamically stable form of rimonabant, the Form I. Accordingly the Form I cannot apparently be converted into the amorphous form by such a simple transformation.
The fastest loss of the bound solvent in combination with amorphization occurs for the ethanol solvate, where the heating/drying of the product takes place at 60° C. or more, generally 60-80° C. Accordingly, the ethanol solvate can be used to obtain powderized amorphous rimonabant base. For other hydrates/solvates, e.g., for the methanolate Form IV, propanolate Form VI, hydrate Form III or hydrate Form V, a temperature higher than 80° C. is preferable to facilitate the conversion into the particulate amorphous rimonabant base. […]

Series [3] is described as follows: Stability of the salt towards solvents (crystallization or stirring of a suspension). From the text: A known rimonabant solvate form, a rimonabant ethanol solvate, is disclosed in U.S. Pat. No. 5,624,941 (Example 212). According to U.S. Pat. No. 5,624,941, this ethanol solvate may be made by crystallizing rimonabant from ethanol. It has now been discovered that the same rimonabant ethanol solvate may be obtained by a novel solvent mediated transformation, such as by suspending and stirring the anhydrous rimonabant base in a liquid comprising ethanol. For example, the liquid may be an ethanol/water mixture, e.g. having a 3:1 (V/V) ratio. Also the crystallization of rimonabant hydrochloride from an ethanol/water mixture may provide for the known ethanolate of rimonabant base, which is another process not disclosed in the prior art and indicates the instability of rimonabant hydrochloride towards solvents comprising ethanol. As described more fully below, this ethanol solvate can be used to form amorphous rimonabant.
In this regard, the rimonabant salt can precipitate as the base, either by addition of a neutralizing base or spontaneously, and/or can precipitate as the salt and convert to the base by a solvent mediated transformation. Accordingly, stirring a suspension of rimonabant hydrochloride in a solvent comprising water (e.g. water/methanol=30:1 V/V) at ambient temperature provides for solvent-mediated polymorphic transformation yielding the Form III of rimonabant base. […]

As to `Cc1c(C(=O)NN2CCCCC2)nn(-c2ccc(Cl)cc2Cl)c1-c1ccc(Cl)cc1` [Form III, Rimonabant], the solubility in water entry in “Solubility in water” is “same solubility in water as the known Form I”. The stability during storage entry in series [1] is given as “stable”.

For `Cc1c(C(=O)NN2CCCCC2)nn(-c2ccc(Cl)cc2Cl)c1-c1ccc(Cl)cc1` [Form IV, Rimonabant], the conversion during storage entry in series [1] (in the presence of air humidity) is “may be converted into Form III”.

On to `Cc1c(C(=O)NN2CCCCC2)nn(-c2ccc(Cl)cc2Cl)c1-c1ccc(Cl)cc1` [Form VI, Rimonabant], for which the stability during storage result in series [1] is “sufficiently stable”. Further, the “relative stability to heating/drying (desolvation)” value in series [2] was “most stable”.

With `Cc1c(C(=O)NN2CCCCC2)nn(-c2ccc(Cl)cc2Cl)c1-c1ccc(Cl)cc1` [rimonabant hydrochloride], in series [3] (crystallization from an ethanol/water mixture gives the ethanolate of the base), the “stability towards solvents comprising ethanol” value was “instability”. The “stability towards solvents comprising water” value in series [3] (e.g. water/methanol 30:1 V/V, ambient temperature, yields Form III of the base) was “not stable”.
